# Laboratory results as given in US7395112B2, “Method and apparatus for treating tumors using low strength electric fields” (priority 2002, dated 2008).
# Legend:
# CT-26 colon carcinoma [1] = experiment: LEF with chemotherapy (LEFCT-EC) in mice bearing 5 mm CT-26 tumors; assay type: in vivo, BALB/C mice
# Procedure: Mice: BALB/C male mice were obtained from the breeding colony of Tel-Aviv University, Israel. Mice were used at 8-12 weeks of age. Animal care and experimentation were performed in accordance with the Tel-Aviv University guidelines.
# Tumor: Colon carcinoma tumors were grown in mice with CT-26, a metastatic colon carcinoma cell line induced in a BALB/c mouse by chemical carcinogenesis. Cells were cultured in Dulbecco's modified Eagle's medium (DMEM) supplemented with 100 U/ml penicillin, 100 μg/ml streptomycin, 2 mM L-glutamine; 1 mM sodium pyruvate; 1% non-essential amino acid solution; 10% heat-inactivated fetal calf serum. Cultures were maintained at 37° C. in a humidified incubator with a 5% CO2 atmosphere.
# Tumor cell inoculation: Mice were inoculated intracutaneously with 10^5 CT-26 cells suspended in 100 μL PBS into the low lateral side of the back. Local tumor growth was determined by measuring three mutually orthogonal tumor diameters with a caliper. The volume of tumor was calculated using the formula: Vol=D1×D2×D3×π/6, where D1, D2, D3 are three mutually orthogonal tumor diameters.
# (§1) Low-strength electric field stimulation: To subject tumors to LEFs, stainless steel needles were used as electrodes. Tumors 5 mm in diameter (about 65 mm^3) were transfixed by electrode needles, with one cathode in the center of the tumor and three or four peripheral anodes. The electrodes were connected to an electric pulse generator and to an oscilloscope. Pulsed LEFs with a repetition frequency of 500 Hz and a pulse width of 180 μs were applied at 20, 40, 60 and 70 V/cm for a duration 12 min or 20 min. The electric pulses were administered 2-4 min following chemotherapeutic drug administration. Mice were anesthetized 10 min before the procedure.
# (§2) Chemotherapeutic agents: Bleomycin (Sigma Israel Chemicals Ltd., Israel; Megapharm Ltd., Israel) was kept at a temperature of 2-8° C., and was dissolved in pyrogen-free PBS to a concentration enabling dosages of 50 U/kg body weight prior to use. BCNU was administered at a dosage of 35 mg/kg body weight, and 5-FU (Abic, Israel) was used at a dose of 100 mg/kg body weight.
# Anesthesia: Mice were anesthetized using an anesthetic cocktail comprising a dose of imalgen at 100 mg/kg body weight and xylazine hydrochloride at 6.25 mg/kg body weight dissolved in PBS injected intraperitoneally in a volume of 0.25 ml per mouse 10 min prior to LEF treatment.
# Statistical analysis: Survival times (Kaplan-Meir test), survival comparisons between groups (Mantel-Cox test), and tumor volume differences between groups were plotted using StatSoft “Statistica” statistical software.
# Effect of LEF duration and strength on potentiation of bleomycin for treatment of colon carcinoma: In order to determine the optimal LEFCT-EC/bleomycin therapy for treatment of colon cancer, mice bearing CT-26 tumors were treated with LEFs of 40 V/cm for 12 min, and 20 V/cm for 12 or 20 min with or without administration of bleomycin, and survival was analyzed.
# B16-F10.9 melanoma [2] = experiment: LEFCT-EC in mice bearing subcutaneous B16-F10.9 melanoma; assay type: in vivo, C57BL/6 mice; details: for Tumor size (mean ± standard error): 7 days after treatment
# Procedure: Animals: C57BL/6 male mice were obtained from the breeding colony of Tel-Aviv University, Israel. Mice were used at 8-12 weeks of age. Animal care and experimentation was carried out in accordance with Tel-Aviv University guidelines.
# Melanoma tumor cell line: The highly metastatic, poorly immunogenic B16-F10.9 (F10.9) subclone of the B16 melanoma cell line was used to generate melanoma tumors in mice (Eisenbach L. et al., 1984. Int J Cancer 34:567). Cells were maintained in DMEM supplemented with 100 U/ml penicillin, 100 μg/ml streptomycin, 4 mM glutamine, 1 mM sodium pyruvate, 1% non-essential amino acids and 10% heat-inactivated fetal calf serum (FCS); and were cultured at 37° C. in a humidified incubator in an atmosphere of 7% carbon dioxide and 93% air.
# Tumor generation protocol: F10.9 tumors were induced in C57BL/6 mice by subcutaneous injection of 2×10^5 F10.9 cells. Mice were subjected to experimental treatments once tumors reached 5 mm in diameter (about 60-70 mm^3). Chemotherapeutic drugs: The following chemotherapeutic drugs used were: cis-platinum (II) diamminedichloride (cisplatin; #P-4394, Sigma, Israel), dissolved in PBS for injections; Taxol (Mead Johnson Oncology Products, A Bristol-Myers Squibb, USA), obtained as a sterile nonpyrogenic solution containing 6 mg/ml paclitaxel, 527 mg/ml of purified Cremophor EL (polyoxyethylated castor oil) and 5-FU (Abic, Israel).
# Low-strength electric field enhanced cancer therapy protocol: Mice were subjected to a single treatment of LEFCT-EC, once tumors reached 5 mm in diameter (11-17 days following tumor cell inoculation). Volumes of up to 100 μl of chemotherapeutic agents were injected into tumor loci, and exposures to electric fields were carried out 3-4 min following intratumoral injection of chemotherapeutic agents. To expose tumors to electric fields, stainless steel electrode needles (Karlsbader insect pins No 0. BioQuip Products, USA) soldered at their brassy ends with thin isolated copper wires were used. Electrodes were inserted to a depth of about 7 mm percutaneously into and in the immediate vicinity of the tumor; one cathode needle in the center of the tumor and three peripheral anodes, at a distance of about 5 mm from the cathode. The needles were connected to an electric pulse generator (Grass S48 Stimulator, USA). The field strength applied was about 40 V/cm; the repetition frequency, 500 Hz; and the pulse width, 180 μs. All mice were anesthetized prior to LEF treatment.
# Statistical analysis: Statistical analysis of survival times (Kaplan-Meir test), survival comparisons between groups (Mantel-Cox test) and tumor volume differences between groups (Kolmogorov-Smirnov test) were performed using StatSoft Statistica statistical software. The 10-15% mortality rate in the 5 days following LEF or LEF-chemotherapy was considered as treatment-caused, therefore such cases of mortality were excluded.
# Tumor volume determination: performed as described above in Example 1 of the Examples section.
# CT-26 colon carcinoma [3] = experiment: LEFCT-EC with BCNU in mice bearing large (10 or 15 mm) CT-26 tumors; assay type: in vivo, BALB/C mice; details: for time after which all mice were dead: BCNU 35 mg/kg only; for cure rate: LEF 40 V/cm 12 min + BCNU 35 mg/kg
# Procedure: as §1, §2
# Effect of LEFCT-EC with BCNU on CT-26 development in mice bearing large tumors: In order to examine the effectiveness of LEFCT-EC with BCNU on tumor development in mice with a large tumor burden, mice bearing tumors of 10 mm (about 523 mm^3) or 15 mm in diameter (about 1,760 mm^3). These animals were treated with 4 electrodes placed 7 mm apart.
# CT-26 colon carcinoma [4] = system: CT-26 colon carcinoma
# CT-26 colon carcinoma [5] = experiment: CT-26 cells inoculated with splenocytes from mice cured by LEFCT-EC with BCNU; assay type: in vivo, BALB/C mice; details: donors cured by LEFCT-EC with BCNU; tumor cells to splenocytes 1:100
# Excerpt: Anti-tumor effect of splenocytes from tumor bearing mice cured by LEFCT-EC with BCNU: In order to examine whether development of resistance against challenge with CT-26 tumors in mice cured of such tumors via LEFCT-EC with BCNU is immunologically mediated, normal mice were inoculated with a dose of CT-26 tumor cells mixed with splenocytes from cured animals. […] Thus, curative LEFCT-EC+BCNU treatment of CT-26 tumor bearing mice induces immunological resistance to subsequent growth of such tumors in such mice.
# B16-F10.9 melanoma [6] = experiment: Rechallenge with B16-F10.9 cells of mice cured by LEFCT-EC; assay type: in vivo, C57BL/6 mice; details: mice cured by LEFCT-EC with the drug, challenged with 2×10^5 B16-F10.9 cells
# Excerpt: FIG. 17 is a data plot depicting the cumulative survival of mice previously bearing B16-F10.9 melanoma and cured by LEFCT-EC with cisplatin or taxol following challenge with B16-F10.9 melanoma cells. Mice cured by LEF-chemotherapy that survived for 120-180 days after initial tumor inoculation, were challenged with 2×10^5 B16-F10.9 cells subcutaneously.
# Effect of curative LEFCT-EC treatment on generation of anti B16-F10.9 tumor resistance: The resistance of mice cured of B16-F10.9 melanoma by LEF-chemotherapy was analyzed by challenging such cured mice with a tumorigenic dose of B16-F 10.9 melanoma cells.
# [7] = LEF-CT (drug + LEF), cisplatin 4 mg/kg, bleomycin 8 U/kg, 5-FU 150 mg/kg, taxol 20 mg/kg
# [8] = intratumoral drug injection alone, same doses
# [9] = chemotherapy alone, intratumoral, no LEF
compound,measurement,setting,value
"O=c1[nH]cc(F)c(=O)[nH]1 [5-FU, 5-fluorouracil]",time at which half of the mice were still alive,CT-26 colon carcinoma [1]; 5-FU 100 mg/kg intratumoral or intravenous + LEF 40 V/cm 12 min,80 days
same,Tumor size (mean ± standard error),B16-F10.9 melanoma [2]; [7],143 ± 52 mm^3
same,Tumor size (mean ± standard error),B16-F10.9 melanoma [2]; [8],460 ± 54 mm^3
O=NN(CCCl)C(=O)NCCCl [BCNU],survival rate,"CT-26 colon carcinoma [1]; BCNU 35 mg/kg intratumoral + LEF 40 V/cm 12 min, after 52 days, unchanged until day 110",83%
same,survival,"CT-26 colon carcinoma [1]; BCNU + LEF 40 V/cm, comparison with surgery, after about 60 days until about 120 days",40%
same,cure rate,"CT-26 colon carcinoma [1]; LEFCT-EC: drug + LEF 40 V/cm 12 min, 5 mm tumors",83%
same,tumor size with drug only relative to drug + LEF,CT-26 colon carcinoma [1]; after 21 days,about triple the size
same,time after which half the mice died,"CT-26 colon carcinoma [1]; drug alone, no LEF, intratumoral injection (5-FU intratumoral or intravenous), 5 mm tumors",about 48 days
same,tumor size with LEFCT-EC + BCNU relative to BCNU alone,CT-26 colon carcinoma [3]; 10 mm tumors,approximately an order of magnitude smaller
same,time after which all mice were dead,CT-26 colon carcinoma [3]; 10 mm tumors,90 days
same,time after which all mice were dead,CT-26 colon carcinoma [3]; 15 mm tumors,87 days
same,cure rate,CT-26 colon carcinoma [3]; 10 mm tumors,over 80%
same,cure rate,CT-26 colon carcinoma [3]; 15 mm tumors,100%
same,survival,"CT-26 colon carcinoma [3]; LEF with BCNU, 15 mm tumors, after 100 days",100%
same,tumor detection,"CT-26 colon carcinoma [3]; LEFCT-EC with BCNU, 15 mm tumors, after 42 days",no tumors were detected
same,tumor volume of reinoculated mice relative to first-time inoculated mice,CT-26 colon carcinoma [4]; after 18 days,about one order of magnitude smaller
same,day by which half of the cured and challenged mice were still alive,"CT-26 colon carcinoma [4]; mice cured by LEFCT-EC with BCNU, challenged with 10^5 CT-26 cells",~63 days
same,tumor growth with splenocytes from cured mice,CT-26 colon carcinoma [5],completely prevent growth of tumors
"N.N.[Cl-].[Cl-].[Pt+2] [cisplatin, cis-platinum (II) diamminedichloride]",MST of challenged mice,B16-F10.9 melanoma [6],48.7 days
same,Tumor size (mean ± standard error),B16-F10.9 melanoma [2]; [7],83 ± 57 mm^3
same,mean survival time (MST),"B16-F10.9 melanoma [2]; LEF-chemotherapy: intratumoral drug + LEF about 40 V/cm 12 min, 120 days (cisplatin) or 180 days (taxol, bleomycin) after inoculation",51.1 days
same,animals tumor free,"B16-F10.9 melanoma [2]; LEF-chemotherapy, 120 days after tumor inoculation",13.5%
same,effect of drug alone on survival,B16-F10.9 melanoma [2]; [9],no significant effect
same,mean survival time (MST),B16-F10.9 melanoma [2]; [9],29.5 days
same,Tumor size (mean ± standard error),B16-F10.9 melanoma [2]; [8],1684 ± 204 mm^3
same,"LEFCT-EC treated mice that died two months and later after treatment with pulmonary metastatic foci, free of primary tumor","B16-F10.9 melanoma [2]; pooled statement for cisplatin, taxol or bleomycin",About 10%
